Data: patent US6440958B1, “Acrylic and propionic acid compounds, intermediates, processes, compositions, and methods” (Eli Lilly and Company, priority 1995, dated 2002)

Columns and labels:
[1] = test system: ovariectomized (OVX) rats; assay: Uterine eosinophil peroxidase (EPO) assay; assay type: in vivo, Sprague Dawley rats; set-up: unit not given here; conditions: oral, daily for 4 days
Description: (§1) Seventy-five day old female Sprague Dawley rats (weight range of 200 to 225g) were obtained from Charles River Laboratories (Portage, Mich.). The animals were either bilaterally ovariectomized (OVX) or exposed to a Sham surgical procedure at Charles River Laboratories, and then shipped after one week. Upon arrival, they were housed in metal hanging cages in groups of 3 or 4 per cage and had ad libitum access to food (calcium content approximately 0.5%) and water for one week. Room temperature was maintained at 22.2°±1.7° C. with a minimum relative humidity of 40%. The photoperiod in the room was 12 hours light and 12 hours dark.
(§2) Dosing Regimen Tissue Collection. After a one week acclimation period (therefore, two weeks post-OVX) daily dosing with test compound was initiated. 17α-ethynyl estradiol or the test compound were given orally, unless otherwise stated, as a suspension in 1% carboxymethylcellulose or dissolved or suspended in 20% cyclodextrin. Animals were dosed daily for 4 days. Following the dosing regimen, animals were weighed and anesthetized with a ketamine: Xylazine (2:1, V:V) mixture and a blood sample was collected by cardiac puncture. The animals were then sacrificed by asphyxiation with CO2, the uterus was removed through a midline incision, and a wet uterine weight was determined.
Uterine Eosinoihil Peroxidase (EPO) Assay. Uteri were kept at 4° C. until time of enzymatic analysis. The uteri were then homogenized in 50 volumes of 50 mM Tris buffer (pH -8.0) containing 0.005% Triton X-100. Upon addition of 0.01% hydrogen peroxide and 10 mM O-phenylenediamine (final concentrations) in Tris buffer, increase in absorbance was monitored for one minute at 450 nm. The presence of eosonophils in the uterus is an indication of estrogenic activity of a compound. The maximal velocity of a 15 second interval was determined over the initial, linear portion of the reaction curve.

[2] = test system: ovariectomized (OVX) rats; assay: Serum cholesterol in ovariectomized rat post-menopausal model; assay type: in vivo, Sprague Dawley rats; conditions: oral, daily for 4 days
Experimental: (§3) In the examples illustrating the methods, a post-menopausal model was used in which effects of different treatments upon circulating lipids were determined.
as §1, §2
Cholesterol Analysis. Blood samples were allowed to clot at room temperature for 2 hours, and serum was obtained following centrifugation for 10 minutes at 3000 rpm. Serum cholesterol was determined using a Boehringer Mannheim Diagnostics high performance cholesterol assay. Briefly the cholesterol was oxidized to cholest-4-en-3-one and hydrogen peroxide. The hydrogen peroxide was then reacted with phenol and 4-aminophenazone in the presence of peroxidase to produce a p-quinone imine dye, which was read spectrophotometrically at 500 nm. Cholesterol concentration was then calculated against a standard curve. The entire assay was automated using a Biomek Automated Workstation.

[3] = test system: ovariectomized (OVX) rats; assay: Uterine wet weight in ovariectomized rat post-menopausal model; assay type: in vivo, Sprague Dawley rats; conditions: for Uterine weight (% increase vs. OVX): oral, daily for 4 days, OVX rats
Experimental: as §3, §1, §2

[4] = test system: ovariectomized (OVX) rats; assay: Uterine eosinophil peroxidase (EPO) assay; assay type: in vivo, Sprague Dawley rats
[5] = dose 0.1 mg/kg, test compounds in CDX susp. or soln.
[6] = dose 1 mg/kg, CDX susp. or soln.
[7] = dose 10 mg/kg, CDX susp. or soln.
[8] = dose 0.1 mg/kg, test compounds in CDX (cyclodextrin) susp. or soln.

| Uterine EPO (V. max) [1, 5] | Uterine EPO (V. max) [1, 6] | Uterine EPO (V. max) [1, 7] | Uterine weight (% increase vs. OVX) [3, 8] | Uterine weight (% increase vs. OVX) [3, 6] | Uterine weight (% increase vs. OVX) [3, 7] | melting point | SMILES | Serum Cholesterol (% decrease vs. OVX) [2, 5] | Serum Cholesterol (% decrease vs. OVX) [2, 6] | Serum Cholesterol (% decrease vs. OVX) [2, 7] | Effect on uterus / uterine weight (in words) ([3]; orally administered at 0.1 mg/kg/day, vs. ovariectomized test animals) | Eosinophil infiltration into the uterus (stromal layer), in words [4] |
| --- | --- | --- | --- | --- | --- | --- | --- | --- | --- | --- | --- | --- |
| 2.1 | 2.1 | 35.1 | 25.0% | 23.3% | 119.9% | 204 to 207 °C | COc1ccc(-c2sc3cc(OC)ccc3c2C(=O)c2ccc(/C=C/C(=O)O)cc2)cc1 [Example 2] | −16.6% | −37.3% | 73.2% | – | – |
| 130.5 | – | – | 201.3% | – | – | – | C#C[C@]1(O)CC[C@H]2[C@@H]3CCc4cc(O)ccc4[C@H]3CC[C@@]21C [EE2, 17α-ethynyl estradiol, reference compound] | 68.6% | – | – | uterine weight was substantially greater than the uterine weight of ovariectomized test animals | substantial, expected increase in eosinophil infiltration |
| 0.0 | 0.0 | 1.2 | −45.9% | −37.0% | 29.3% | 244 to 248 °C | O=C(O)CCc1ccc(C(=O)c2c(-c3ccc(O)cc3)sc3cc(O)ccc23)cc1 [Example 4, 6-hydroxy-3-[4-(2-carboxyethyl)benzoyl]-2-(4-hydroxyphenyl)benzo[b]thiophene] | −46.2% | −28.8% | 16.5% | – | – |
| 0.9 | 1.2 | 8.4 | 23.9% | 19.7% | 97.3% | – | O=C(O)/C=C/c1ccc(C(=O)c2c(-c3ccc(O)cc3)sc3cc(O)ccc23)cc1 [Example 3, (E)-6-hydroxy-3-[4-(2-carboxyvinyl)benzoyl]-2-(4-hydroxyphenyl)benzo[b]thiophene] | −15.1% | −26.6% | 57.7% | – | – |
